Tests used:
Test in all cases: relative viability (nuclei count vs DMSO), 5 days (fraction); higher = more cells survive
[1] = compound: CC1=CC=C(C=C1)C(=O)CN2C3=C(CCCC3)SC2=N [Pifithrin_alpha] + CCNC(=O)c1noc(-c2cc(C(C)C)c(O)cc2O)c1-c1ccc(CN2CCOCC2)cc1 [Luminespib] (partner 0.01 µM)
In short: (§1)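 Cells from lung cancer lines were seeded into 1536-well plates and, one day later, dosed by pin tool. Treatments were either a single drug or a fixed dose of an anchor drug with five library-drug doses (not always all listed) in √10 steps. After 5 days, nuclei were stained in a one-step fixation (final 0.05% Triton X-100, 1% formaldehyde, 1 ug/ml Hoechst) and counted on 4× images, and relative viability is the treated-to-vehicle nuclei ratio, as the median of duplicate plates.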

[2] = compound: CC1=CC=C(C=C1)C(=O)CN2C3=C(CCCC3)SC2=N [Pifithrin_alpha] + C[C@@H](Oc1cc(-c2cnn(C3CCNCC3)c2)cnc1N)c1c(Cl)ccc(F)c1Cl [Crizotinib] (partner 1 µM)
In short: as §1

[3] = compound: CNC(=O)c1ccccc1Sc1ccc2c(/C=C/c3ccccn3)n[nH]c2c1 [Axitinib] + CS(=O)(=O)CCNCc1ccc(-c2ccc3ncnc(Nc4ccc(OCc5cccc(F)c5)c(Cl)c4)c3c2)o1 [Lapatinib] (partner 2 µM)
In short: as §1

[4] = compound: CC1=CC=C(C=C1)C(=O)CN2C3=C(CCCC3)SC2=N [Pifithrin_alpha] + NC(=O)Nc1cc(-c2cccc(F)c2)sc1C(=O)N[C@H]1CCCNC1 [AZD7762] (partner 0.2 µM)
In short: as §1

Cell Line	relative viability ([1]; first compound 1 µM)	relative viability ([1]; first compound 3.162 µM)	relative viability ([1]; first compound 10 µM)	relative viability ([1]; first compound 31.62 µM)	relative viability ([1]; first compound 100 µM)	relative viability ([2]; first compound 1 µM)	relative viability ([2]; first compound 3.162 µM)	relative viability ([2]; first compound 10 µM)	relative viability ([2]; first compound 31.62 µM)	relative viability ([2]; first compound 100 µM)	relative viability ([3]; first compound 0.005 µM)	relative viability ([3]; first compound 0.01581 µM)	relative viability ([3]; first compound 0.05 µM)	relative viability ([3]; first compound 0.1581 µM)	relative viability ([3]; first compound 0.5 µM)	relative viability ([4]; first compound 1 µM)	relative viability ([4]; first compound 3.162 µM)	relative viability ([4]; first compound 10 µM)	relative viability ([4]; first compound 31.62 µM)	relative viability ([4]; first compound 100 µM)
NCI-H1563	0.489	0.549	0.47	0.467	0.539	0.907	0.846	0.714	0.832	0.731	0.956	0.85	0.931	0.863	0.694	–	–	–	–	–
EMC-BAC-2	1.17	1.12	0.969	–	1.08	0.733	0.745	0.627	0.416	0.645	0.917	0.869	0.947	0.915	0.803	1.09	1.09	0.954	0.82	1.04
NCI-H596	0.991	1.1	1.02	0.507	0.566	0.953	0.92	0.952	0.883	1.02	1.11	0.935	1.03	0.887	1.14	1.18	0.967	0.926	0.939	1.03
NCI-H2009	1.07	1.04	0.926	0.701	0.967	0.963	1.03	0.955	0.679	0.857	0.92	1.05	0.9	1.02	0.9	–	–	–	–	–
HOP-62	1.07	1.05	1.04	0.776	1.19	0.97	1.14	0.848	0.645	1.04	0.891	0.883	1.01	0.863	1.06	1.24	0.803	0.769	0.659	0.809
NCI-H2126	0.751	0.956	0.783	0.709	0.72	1.03	1.05	0.886	0.768	0.953	0.765	0.745	0.771	0.71	0.729	0.79	1.05	0.949	0.799	0.915
HCC-15	0.175	0.284	0.315	0.209	0.322	0.921	1.05	0.755	0.544	0.861	0.884	0.872	0.831	0.836	0.848	1.28	1.27	1.03	1.1	1.3
NCI-H23	0.231	0.218	0.206	0.205	0.187	0.591	0.596	0.432	0.426	0.506	1.22	1.1	1.15	1.01	1.28	0.229	0.279	0.265	0.172	0.268
LCLC-97TM1	0.742	0.783	0.774	0.423	0.808	–	0.45	0.277	–	0.306	0.74	1.17	1.01	0.927	0.725	0.222	0.231	0.382	–	0.239
SW 1573	0.245	0.214	0.188	–	0.175	0.789	0.753	0.857	0.664	0.656	1.15	1.09	1.29	1.06	1.03	–	–	–	–	–
COR-L23	0.703	0.865	0.562	–	0.484	0.583	0.723	0.683	–	0.644	0.975	0.963	1.12	0.808	1.12	–	–	–	–	–
NCI-H1299	–	–	–	–	–	0.997	0.992	1.05	0.76	0.897	0.956	0.993	0.96	0.97	1.02	–	–	–	–	–
NCI-H1793	–	0.168	0.17	0.186	0.194	–	–	–	–	–	0.768	0.609	1.17	0.571	0.526	0.605	0.402	0.441	0.323	0.255
NCI-H522	–	1.16	1.26	0.993	1.11	–	–	–	–	–	–	–	–	–	–	0.835	1.11	0.851	0.799	0.802
NCI-H1395	0.704	0.518	0.631	0.663	0.657	–	–	–	–	–	1.31	0.887	1.12	0.792	0.922	–	0.385	0.397	–	0.361
NCI-H1703	–	–	–	–	–	0.577	0.531	0.803	0.455	1.05	0.848	0.423	0.274	0.273	0.441	–	0.139	0.101	0.182	0.109
HCC-366	–	–	–	–	–	0.812	0.517	0.418	–	0.198	0.99	0.961	1.09	1.03	1.16	0.23	0.183	0.183	–	0.174
NCI-H1648	–	–	–	–	–	–	–	–	–	–	–	–	–	–	–	0.607	0.959	0.836	0.582	0.504
SK-LU-1	0.216	0.188	0.213	–	0.165	1.01	1.03	0.951	0.824	1.02	0.976	0.951	0.942	0.835	1.39	–	–	–	–	–

Cell Line	relative viability ([1]; first compound 1 µM)	relative viability ([1]; first compound 3.162 µM)	relative viability ([1]; first compound 10 µM)	relative viability ([1]; first compound 31.62 µM)	relative viability ([1]; first compound 100 µM)	relative viability ([2]; first compound 1 µM)	relative viability ([2]; first compound 3.162 µM)	relative viability ([2]; first compound 10 µM)	relative viability ([2]; first compound 31.62 µM)	relative viability ([2]; first compound 100 µM)	relative viability ([3]; first compound 0.005 µM)	relative viability ([3]; first compound 0.01581 µM)	relative viability ([3]; first compound 0.05 µM)	relative viability ([3]; first compound 0.1581 µM)	relative viability ([3]; first compound 0.5 µM)	relative viability ([4]; first compound 1 µM)	relative viability ([4]; first compound 3.162 µM)	relative viability ([4]; first compound 10 µM)	relative viability ([4]; first compound 31.62 µM)	relative viability ([4]; first compound 100 µM)
ChaGo-K-1	0.563	0.528	0.477	0.38	0.581	1.2	1.27	1.08	0.708	1.03	–	–	–	–	–	0.905	0.947	0.872	0.683	0.866
Calu-6	–	–	–	–	–	0.944	0.742	0.813	0.605	0.85	1.07	1.11	1.08	1.06	1.39	–	–	–	–	–
EBC-1	–	–	–	–	–	0.187	0.21	0.168	0.16	0.152	0.218	0.218	0.172	0.239	0.221	–	–	–	–	–
NCI-H1650	–	0.223	0.176	0.209	0.169	0.979	0.912	0.936	0.648	0.792	0.928	0.532	0.884	0.715	0.818	–	–	–	–	–
NCI-H2228	0.145	0.15	0.178	0.149	0.124	0.3	0.424	0.432	0.263	0.376	1.28	0.959	1.09	1.29	1.39	–	–	–	–	–
NCI-H2023	0.544	0.637	0.364	0.277	0.34	0.505	0.501	0.381	0.3	0.37	0.752	0.924	1.03	0.775	0.759	–	–	–	–	–
IA-LM	–	–	–	–	–	0.652	0.622	0.705	0.463	0.433	0.83	0.884	0.781	0.747	0.788	–	–	–	–	–
NCI-H2342	0.653	0.665	0.699	0.773	0.71	–	–	–	–	–	–	–	–	–	–	0.421	0.541	0.51	0.525	0.492
COR-L 105	0.675	0.763	0.547	0.62	0.685	0.678	0.644	0.712	0.469	0.75	0.355	0.357	0.328	0.381	0.38	–	–	–	–	–
UMC-11	0.98	1.22	1.36	1.08	1.48	0.64	0.758	0.63	0.515	0.757	0.945	1.06	0.959	0.916	0.943	–	–	–	–	–
HCC-78	–	–	–	–	–	0.319	0.289	0.321	–	0.321	0.865	0.724	0.642	0.701	0.47	–	0.509	0.566	0.54	0.526
SK-MES-1	0.644	0.698	0.478	0.262	0.286	0.934	0.933	0.976	0.683	0.765	0.492	0.454	0.53	0.446	0.547	–	–	–	–	–
NCI-H520	0.213	0.21	0.24	–	0.223	1.19	0.805	0.731	0.509	0.833	0.902	0.778	0.771	0.751	0.785	–	–	–	–	–
SW 900	0.2	0.194	0.142	0.167	0.19	–	–	–	–	–	–	–	–	–	–	0.567	0.497	0.622	0.41	0.424
NCI-H661	0.912	0.915	0.949	0.881	0.921	1.16	0.93	0.908	1.17	0.988	0.608	0.522	0.359	0.481	0.534	–	–	–	–	–
NCI-H1623	0.464	0.285	0.339	0.318	0.322	–	–	–	–	–	–	–	–	–	–	–	–	–	–	–
LCLC-103H	0.947	0.994	0.894	0.789	0.996	1.06	1.04	1.01	0.897	1.07	–	–	–	–	–	0.792	0.846	0.791	0.721	0.85
NCI-H441	0.355	0.369	0.383	–	0.464	0.718	0.739	0.806	0.56	0.826	–	–	–	–	–	1.34	1.16	1.3	–	1.06
A549	–	–	–	–	–	0.989	0.761	0.817	0.552	0.799	0.896	1	0.997	0.902	1.01	–	–	–	–	–
